Our source for the Normal boiling temperature values is the NIST ThermoML archive (doi:10.1016/j.fluid.2018.05.031).

Numbers after ± are expanded uncertainties.

For the data set the following is noted: Liquid; Ebulliometric method (Recirculating still).

Take `CO` [methanol]: the Normal boiling temperature turned out to be 64.50 ± 0.2 °C. `COC(C)=O` [methyl ethanoate]: the Normal boiling temperature is 56.90 ± 0.2 °C.
